This is an account of results in PubChem BioAssay (NCI).

Some test systems named below: HS 578T breast; LOX IMVI melanoma; MCF7 breast; NCI-H460 lung; NCI/ADR-RES ovarian; SF-268 CNS; SK-MEL-28 melanoma; SNB-75 CNS; CAKI-1 renal; HCC-2998 colon.
Common to all, as to test: DTP human tumour cell line panel, 48 h

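1) Cells in 96-well plates. 2) Compound, 48 h, 5 concentrations. 3) Linear interpolation between surrounding doses. 4) Unreached endpoint = highest concentration. TGI marks complete inhibition of growth.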

The TGI is the concentration at which net growth stops. Low values mean more potent growth arrest, high ones less potent growth arrest.

For `C[C@H](C/C=C/C(C)(C)O)[C@H]1CC[C@@]2(C)[C@@H]3CC[C@H]4C(C)(C)[C@@H](O)CC[C@@]45C[C@@]35CC[C@]12C`, the TGI was 27.8 µM in the assay on HS 578T breast; 29.4 µM with LOX IMVI melanoma; greater than 100 µM with MCF7 breast; 54.2 µM with NCI-H460 lung; 19.4 µM in the assay with NCI/ADR-RES ovarian; 19.6 µM in the assay on SF-268 CNS. Besides, the TGI in the assay on SK-MEL-28 melanoma came out at 37.8 µM; with SNB-75 CNS, 52.5 µM.
Consider `CC(C)C1N(C)c2ccc(Cl)cc2[C@H]2c3ccccc3CCN12` (some centres undefined), for which the concentration for total growth inhibition (TGI) with HS 578T breast is 82.1 µM; with LOX IMVI melanoma, 55.7 µM; in the assay with MCF7 breast, greater than 100 µM; in the assay with NCI-H460 lung it was greater than 100 µM; with NCI/ADR-RES ovarian it was greater than 100 µM; in the assay with SF-268 CNS, greater than 100 µM. In addition, the TGI in the assay on SK-MEL-28 melanoma and with SNB-75 CNS was greater than 100 µM throughout.
Turning to `NNC(=O)c1cc(=O)[nH][nH]1`, the TGI in the assay on CAKI-1 renal, in the assay on HS 578T breast, with MCF7 breast, with NCI-H460 lung, in the assay on NCI/ADR-RES ovarian and in the assay on SF-268 CNS was greater than 100 µM in each case. Further, the concentration for total growth inhibition (TGI) in the assay on SNB-75 CNS was greater than 100 µM.
`CC1=NC(=Cc2ccc([N+](=O)[O-])cc2)C(=O)N1n1c(-c2ccccc2)nc2ccccc2c1=O`: the TGI with CAKI-1 renal, with HCC-2998 colon, in the assay with HS 578T breast, in the assay with LOX IMVI melanoma, with MCF7 breast and with SF-268 CNS was greater than 100 µM each time. In addition, the concentration for total growth inhibition (TGI) in the assay with SK-MEL-28 melanoma and in the assay with SNB-75 CNS was greater than 100 µM in each case.
As to `CC(C)(C)OC(=O)NCCCCC(NC(=O)c1ccccc1)C(N)=O` (centres undefined), the TGI in the assay with CAKI-1 renal, in the assay on HS 578T breast, with LOX IMVI melanoma, in the assay on MCF7 breast, in the assay on NCI-H460 lung and with NCI/ADR-RES ovarian was greater than 100 µM in each case. The TGI with SF-268 CNS, with SK-MEL-28 melanoma and in the assay on SNB-75 CNS was greater than 100 µM each time.
Take `Cc1nc2c(=S)n(C)ncc2[nH]1`: the total growth inhibition concentration (TGI) in the assay with CAKI-1 renal, with HCC-2998 colon, in the assay with LOX IMVI melanoma, in the assay with MCF7 breast, with NCI/ADR-RES ovarian and in the assay with SK-MEL-28 melanoma was greater than 100 µM in each case. Also, the TGI in the assay with SNB-75 CNS is greater than 100 µM.
Regarding `CCOC(=O)C1=COC(C)(CCc2ccccc2)CC1=O` (centres undefined), the TGI with CAKI-1 renal, with HS 578T breast, with MCF7 breast, with NCI-H460 lung, with NCI/ADR-RES ovarian and with SF-268 CNS was greater than 100 µM each time. The TGI with SK-MEL-28 melanoma and in the assay with SNB-75 CNS was greater than 100 µM throughout.
Turning to `N#C/C(=C/NC(=S)c1ccncc1)C(N)=O`, the concentration for total growth inhibition (TGI) in the assay on CAKI-1 renal, in the assay with HCC-2998 colon, in the assay on LOX IMVI melanoma, in the assay on MCF7 breast, in the assay with NCI-H460 lung and in the assay with NCI/ADR-RES ovarian was greater than 100 µM throughout. Besides, the TGI with SF-268 CNS, in the assay with SK-MEL-28 melanoma and with SNB-75 CNS was greater than 100 µM in each case.
On to `O=C1Nc2ccccc2Nc2ccncc21`, for which the TGI with CAKI-1 renal, in the assay on HCC-2998 colon, in the assay with LOX IMVI melanoma, in the assay with MCF7 breast, in the assay with NCI-H460 lung and in the assay with NCI/ADR-RES ovarian was greater than 100 µM in each case. Besides, the TGI in the assay with SF-268 CNS, with SK-MEL-28 melanoma and in the assay with SNB-75 CNS was greater than 100 µM in each case.
For the compound `C=CCOCn1cc(C)c(=O)[nH]c1=O`, the concentration for total growth inhibition (TGI) in the assay with CAKI-1 renal, in the assay with HCC-2998 colon, in the assay on HS 578T breast, in the assay with LOX IMVI melanoma, in the assay on MCF7 breast and in the assay with NCI-H460 lung was greater than 100 µM in each case. For the same compound, the TGI in the assay with SF-268 CNS, in the assay with SK-MEL-28 melanoma and in the assay with SNB-75 CNS was greater than 100 µM in each case.
For `COc1cc(-c2ccccc2N)c2cccnc2c1OC`, the TGI in the assay on CAKI-1 renal is 10.2 µM; with HS 578T breast it was 11.9 µM; in the assay on LOX IMVI melanoma, 15.3 µM; in the assay with MCF7 breast it was 18.3 µM; in the assay on NCI-H460 lung, 43.4 µM; in the assay on NCI/ADR-RES ovarian it was 35.9 µM. The total growth inhibition concentration (TGI) in the assay with SF-268 CNS is 12.8 µM; with SK-MEL-28 melanoma it was 32.8 µM.
In the case of `O=C(NC(=S)NC(=O)c1cc(O)c(O)c(O)c1)c1cc(O)c(O)c(O)c1`, the TGI in the assay on CAKI-1 renal was 44.3 µM; in the assay on HCC-2998 colon, 87.9 µM; in the assay on LOX IMVI melanoma it was 60.3 µM; in the assay with MCF7 breast, greater than 100 µM; with NCI-H460 lung, greater than 100 µM; in the assay on NCI/ADR-RES ovarian, 70.4 µM. Also, the TGI in the assay with SF-268 CNS is greater than 100 µM; in the assay on SK-MEL-28 melanoma, 73.9 µM.
In the case of `Cn1c(N/N=C/c2ccccc2)nc(-c2ccc([N+](=O)[O-])cc2)c(C#N)c1=O`, the TGI in the assay with CAKI-1 renal, with HS 578T breast, with LOX IMVI melanoma, in the assay with MCF7 breast, with NCI-H460 lung and in the assay on NCI/ADR-RES ovarian was greater than 100 µM in each case. Besides, the TGI in the assay on SF-268 CNS, with SK-MEL-28 melanoma and in the assay on SNB-75 CNS was greater than 100 µM in each case.
Turning to `Cc1ccccc1NC(=O)Cc1csc2[n+]1C(=O)/C(=C/c1ccc([N+](=O)[O-])cc1)S2`, the TGI was 61.8 µM in the assay with CAKI-1 renal; greater than 100 µM in the assay with HCC-2998 colon; greater than 100 µM in the assay on LOX IMVI melanoma; greater than 100 µM in the assay on MCF7 breast; 88 µM with NCI-H460 lung; greater than 100 µM with NCI/ADR-RES ovarian. In addition, the TGI in the assay on SK-MEL-28 melanoma is greater than 100 µM; in the assay with SNB-75 CNS it was 63.1 µM.
With `COc1cc(C2c3cc4c(cc3OC(N3CCNCC3)C2C)OCO4)cc(OC)c1OC` (centres undefined), the TGI in the assay with CAKI-1 renal was 4.29 µM; in the assay with HCC-2998 colon it was 5.83 µM; with HS 578T breast, 3.35 µM; with LOX IMVI melanoma, 19 µM; in the assay with MCF7 breast, 66.1 µM; in the assay with NCI-H460 lung, 10.9 µM. Moreover, the TGI was greater than 44.2 µM in the assay on SF-268 CNS and 38.6 µM in the assay with SK-MEL-28 melanoma.
`COc1ccccc1C[C@@H]1OC2(C=CC(=O)C=C2)O[C@H]1Cc1ccccc1OC`: the total growth inhibition concentration (TGI) with CAKI-1 renal was 29.7 µM; with HS 578T breast, 29.3 µM; in the assay on LOX IMVI melanoma, 13.8 µM; with MCF7 breast, 17.6 µM; with NCI-H460 lung, greater than 50 µM; in the assay with NCI/ADR-RES ovarian, 18.4 µM. The TGI with SF-268 CNS amounted to 16.9 µM; in the assay on SK-MEL-28 melanoma, 16.1 µM; in the assay on SNB-75 CNS, 17.6 µM.
For the compound `COc1cc2nc(-c3cccs3)[nH]c(=O)c2cc1OC`, the TGI in the assay on CAKI-1 renal, in the assay on HS 578T breast, with LOX IMVI melanoma, in the assay on MCF7 breast, with NCI-H460 lung and in the assay on NCI/ADR-RES ovarian was greater than 100 µM in each case. The TGI in the assay with SF-268 CNS, in the assay with SK-MEL-28 melanoma and with SNB-75 CNS was greater than 100 µM in each case.
On to `Clc1ccc(OCc2nn3c(CCc4nnc5sc(COc6ccc(Cl)cc6)nn45)nnc3s2)cc1`, for which the concentration for total growth inhibition (TGI) in the assay with CAKI-1 renal was 12.8 µM; in the assay with HS 578T breast, greater than 100 µM; in the assay with LOX IMVI melanoma it was greater than 100 µM; in the assay with MCF7 breast it was 92.8 µM; with NCI-H460 lung it was 51.4 µM; in the assay with NCI/ADR-RES ovarian it was 37.5 µM. The TGI in the assay on SF-268 CNS and in the assay with SK-MEL-28 melanoma was greater than 100 µM in each case.
In the case of `CC(C)(C)N(Cc1ccc2c(c1)OCO2)C(=O)/C=C\Sc1ccccc1`, the TGI with CAKI-1 renal, with HCC-2998 colon, with LOX IMVI melanoma, with MCF7 breast, in the assay with NCI/ADR-RES ovarian and in the assay with SK-MEL-28 melanoma was greater than 100 µM each time.
`CCOC(=O)C1=C(C)N(c2ccc(OC)cc2)C2(O)C=CC(=O)C3=C(O)c4ccccc4C(=O)C312` (centres undefined): the TGI with CAKI-1 renal was determined as 26.5 µM; with HS 578T breast, 33.5 µM; with LOX IMVI melanoma, 22.4 µM; in the assay with MCF7 breast, 19.2 µM; with NCI-H460 lung it was 28 µM; in the assay with NCI/ADR-RES ovarian, 20.1 µM. The TGI with SF-268 CNS was 9.82 µM.
Regarding `CC1(C)CC(=O)C2=C(C1)OC1=C(CC(C)(C)CC1=O)C2c1ccccc1[N+](=O)[O-]` (centres undefined), the TGI in the assay with CAKI-1 renal, in the assay on HCC-2998 colon, in the assay with HS 578T breast, with LOX IMVI melanoma, in the assay on NCI-H460 lung and in the assay with NCI/ADR-RES ovarian was greater than 100 µM in each case. Also, the TGI in the assay with SF-268 CNS, in the assay on SK-MEL-28 melanoma and with SNB-75 CNS was greater than 100 µM throughout.
Regarding `O=C(OCC(Cl)(Cl)Cl)O[C@@H]1CCCC1(c1ccccc1)c1ccccc1`, the TGI in the assay with CAKI-1 renal, in the assay with HCC-2998 colon, in the assay with LOX IMVI melanoma, in the assay on MCF7 breast, in the assay with NCI-H460 lung and in the assay with NCI/ADR-RES ovarian was greater than 100 µM in each case. Besides, the TGI in the assay on SF-268 CNS, with SK-MEL-28 melanoma and in the assay with SNB-75 CNS was greater than 100 µM in each case.
Take `C[C@@H]1S[C@H](c2c(Cl)cccc2Cl)N2Cc3ccccc3N=C12`: the TGI in the assay on CAKI-1 renal, in the assay on HCC-2998 colon, with HS 578T breast, in the assay with LOX IMVI melanoma, with MCF7 breast and in the assay on NCI-H460 lung was greater than 100 µM in each case. For the same compound, the TGI in the assay on SF-268 CNS, in the assay on SK-MEL-28 melanoma and in the assay on SNB-75 CNS was greater than 100 µM throughout.
